Each structure is given as a SMILES string.

The subject of one assay is DU145 cells. Nature of the assay: Immunoblotting of apoptotic markers (cleaved caspase-3, PARP-1) in DU145. It counts as cell-based, human. How it is done: FIG. 13. Assays to detect apoptosis in DU145 cells. Prostate cancer cells were left untreated (−) or treated with 10 μM compound I-1 or with vehicle (DMSO) for the time indicated in the figure. (A) After treatment, cells were harvest by trypsinization, washed with PBS, and then incubated with FITC-conjugated Annexin V and propidium iodide. Flow cytometric analysis was performed. The histogram for each sample was split into four quadrants to indicate: viable cells (lower left quadrant), apoptotic cells (lower right quadrant), necrotic cells (upper left quadrant), and necrotic/late apoptotic cells (upper right quadrant). (B) After treatment, cells were lysed and total lysates were analyzed for cellular apoptotic markers by immunoblotting using anti-[…] or antibodies specific to the activated form of Caspase-3 (cleaved Caspase-3). Anti-GAPDH-1 antibody was used as loading control. (C) Some cells were harvested by trypsinization, washed with PBS, and total DNA was extracted then analyzed on a 1.8% agarose gel. M indicates DNA size marker (base pairs).
Cell Culture and Treatment. All cells were obtained from ATCC and were grown in a humidified incubator at 37° C. with 5% CO2. DU145 (hormone-refractory prostate cancer) cells were grown in DMEM and PC3 (hormone-refractory prostate cancer) were grown in F-12K medium supplemented with 10% fetal bovine serum (FBS; Life Technologies), 62.5 μg/mL penicillin and 100 μg/mL streptomycin (Hyclone Laboratories, Logan, Utah). Cells (1×10^6) in fresh complete culture medium were plated on 10 cm diameter tissue dishes for 18 h. Cells for biochemical analyses cells were lysed in lysis buffer (150 mM NaCl, 2 mM EDTA, 50 mM Tris-HCl, 0.25% deoxycholic acid, 1% octylphenoxypolyethoxyethanol (IGEPAL CA-630), pH 7.5) containing protease and phosphatase inhibitor cocktails (Calbiochem, Billerica, Mass.) for 10 min at 4° C. and then cleared by centrifugation at 16,000 g for 10 min at 4° C. All protein concentrations were determined using the bicinchoninic acid (BCA) protein assay (Pierce, Rockford, Ill.).
Immunoblotting. Samples were resolved by 4-20% precast linear gradient SDS-Tris polyacrylamide gel electrophoresis (Bio-rad Bio-Rad Laboratories, Hercules, Calif.) and then electrotransferred onto polyvinylidine fluoride membranes (Millipore, Bedford, Mass.) in Tris-glycine buffer containing 20% methanol. […] Antibody-reactive proteins were detected using a chemiluminescence substrate (SuperSignal; Pierce, Rockford, Ill.) according to the manufacturer's instructions. […]
Next, to further confirm that compound I-1 induces apoptosis in prostate cancer cells, we evaluated key apoptotic molecular markers. […]

A further assay has as its system PC3 cells. Nature of the assay: Immunoblotting of apoptotic markers (cleaved caspase-3, PARP-1) in PC3. Conditions: 10 μM, FIG. 11B. It counts as cell-based, human. How it is done:
FIG. 11. Compound I-1 induces cell cycle arrest and apoptosis in PC3 cells. Prostate cancer cells were left untreated (−) or treated with compound I-1 (10 μM) or with vehicle (DMSO) for the time indicated in the figure. (A) For flow cytometric analysis of cell cycle parameters, cells were fixed, and stained with propidium iodide. Each histogram indicates the percent of cells in G1, S, and G2/M phases of the cell cycle. Data were gated to exclude apoptotic cells for these calculations. (B) After treatment, cells were lysed and total lysates were analyzed for cellular apoptotic markers by immunoblotting using anti-PARP-1 or anti-cleaved Caspase-3 antibodies. Anti-GAPDH-1 antibody was used as loading control. (C) Some 48 h-treated PC3 cells were harvest by trypsinization, washed with PBS, and total DNA was extracted then analyzed on a 1.8% agarose gel. M indicates DNA size marker (base pairs).
Cell Culture and Treatment. All cells were obtained from ATCC and were grown in a humidified incubator at 37° C. with 5% CO2. […] All protein concentrations were determined using the bicinchoninic acid (BCA) protein assay (Pierce, Rockford, Ill.).
Immunoblotting. […] Antibody-reactive proteins were detected using a chemiluminescence substrate (SuperSignal; Pierce, Rockford, Ill.) according to the manufacturer's instructions. […]

As to `C[C@@H]1CC[C@H]2C3C(O[C@]4([C@]5(O)CC6(C)C(=O)OC5C[C@@]6(C)O)CC[C@@]31O4)[C@H]1O[C@]13CC=CC(=O)[C@]23C` (stereo partly drawn) [I-1], in the assay with DU145 cells (10 μM, 48 h and 72 h), the “activated caspase-3” value was “detected” and the “cleavage of PARP-1 protein (additional band at 89 kDa)” value is listed as “detected”. In the assay on DU145 cells (time periods shorter than 48 h), the Caspase-3 activation result is “could not be detected” and the PARP-1 cleavage result is “could not be detected”. In the assay on PC3 cells, the “activation of caspase-3” value is “able to induce” and the “cleavage of PARP-1” value was “able to induce”.

For the origin of these results see US9492428B2, “Compounds, compositions, pharmaceutical compositions, and methods of use” (University of Louisville Research Foundation, Inc., priority 2011, dated 2016).
